In paper PMC7914298 (Bioorganic & medicinal chemistry, 2020):
Read-outs that look alike come from different tables or passages of the source.

What was measured:
[1] = tested on: human FHs 74 Int small intestinal cells; assay: Alamar Blue cell viability assay, FHs 74 Int small intestine cells; details: for Cytotoxicity to human cells (in words): FHs 74 Int shown, FHC colon cells similar
[2] = target: E. coli GroEL/ES (Escherichia coli, UniProt P0A6F5); assay: In situ NfsB-GroEL/ES-dMDH refolding assay; assay type: biochemical; details: activated by E. coli NfsB
Sequence of E. coli GroEL/ES (P0A6F5 2-548): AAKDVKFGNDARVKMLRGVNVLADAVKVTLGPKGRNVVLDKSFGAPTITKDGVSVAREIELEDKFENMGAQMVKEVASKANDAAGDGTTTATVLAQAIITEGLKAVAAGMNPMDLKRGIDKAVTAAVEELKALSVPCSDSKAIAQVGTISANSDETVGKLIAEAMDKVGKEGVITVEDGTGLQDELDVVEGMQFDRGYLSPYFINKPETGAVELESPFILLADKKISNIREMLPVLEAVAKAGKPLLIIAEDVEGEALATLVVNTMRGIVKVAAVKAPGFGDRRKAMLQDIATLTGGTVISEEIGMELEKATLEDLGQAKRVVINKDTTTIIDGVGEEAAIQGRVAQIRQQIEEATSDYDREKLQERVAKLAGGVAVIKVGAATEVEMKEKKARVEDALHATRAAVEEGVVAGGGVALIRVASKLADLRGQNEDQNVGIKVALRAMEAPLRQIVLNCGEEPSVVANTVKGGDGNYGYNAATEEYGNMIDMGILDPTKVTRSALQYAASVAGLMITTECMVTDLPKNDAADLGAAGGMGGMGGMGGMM

[3] = tested on: NEB 5-alpha E. coli; assay type: cell-based, Escherichia coli; details: 12-day serial passage, duplicates
[4] = tested on: resistant E. coli strains; assay: Cross-resistance testing of resistant E. coli strains; assay type: cell-based, Escherichia coli; details: for Cross-resistance of 17-resistant E. coli strains (in words): strains initially made resistant to 17; for Cross-resistance of nitrofurantoin-resistant E. coli strains (in words): strains initially made resistant to nitrofurantoin; for Cross-resistance of nifuroxazide-resistant E. coli strains (in words): strains initially made resistant to nifuroxazide
[5] = tested on: human FHC colon cells; assay: Alamar Blue cell viability assay, FHC colon cells; details: CC50 FHC colon cells over EC50 E. coli proliferation
[6] = target: T1, native MDH (malate dehydrogenase) (Sus scrofa, UniProt P00346); assay type: biochemical
T1 sequence (P00346 25-338): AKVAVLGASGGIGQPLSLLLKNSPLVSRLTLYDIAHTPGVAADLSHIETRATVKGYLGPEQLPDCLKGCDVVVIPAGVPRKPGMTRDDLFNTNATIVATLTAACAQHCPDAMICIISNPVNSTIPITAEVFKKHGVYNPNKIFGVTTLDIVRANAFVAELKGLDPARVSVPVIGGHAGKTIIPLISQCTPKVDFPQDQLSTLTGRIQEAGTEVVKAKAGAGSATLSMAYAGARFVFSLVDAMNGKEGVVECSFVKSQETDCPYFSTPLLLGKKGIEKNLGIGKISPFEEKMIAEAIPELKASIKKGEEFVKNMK

[7] = target: T1, native MDH (malate dehydrogenase); assay: Native MDH enzymatic activity counter-screen; assay type: biochemical
[8] = tested on: Klebsiella pneumoniae (ATCC #13883); assay: K. pneumoniae bacterial proliferation assay; assay type: cell-based
[9] = tested on: human mitochondrial HSP60/10 chaperonin system; details: ref [59], [84]; cited from earlier work

| Structure (SMILES) | IC50 [6] [µM] | IC50 [7] [µM] | Cytotoxicity to human cells (in words) [1] | Time for E. coli to develop intermediate resistance [3] [days] | further results |
| --- | --- | --- | --- | --- | --- |
| O=C(N/N=C/c1ccc([N+](=O)[O-])o1)c1ccc(O)cc1 [Nifuroxazide] |  |  | low to no cytotoxicity | 3 to 5 | GroEL/ES inhibition in the presence of NfsB (in words) [2]: weak to moderate; Cross-resistance of 17-resistant E. coli strains (in words) [4]: susceptible; Cross-resistance of nitrofurantoin-resistant E. coli strains (in words) [4]: still sensitive |
| O=C1CN(/N=C/c2ccc([N+](=O)[O-])o2)C(=O)N1 [Nitrofurantoin, reference compound] | > 56 | > 63 | low to no cytotoxicity | 3 to 5 | SI (CC50 / EC50) Intestine ([1]; CC50 FHs 74 Int cells over EC50 E. coli proliferation): >146; GroEL/ES inhibition in the presence of NfsB (in words) [2]: weak to moderate; SI (CC50 / EC50) Colon [5]: >146; Cross-resistance of 17-resistant E. coli strains (in words) [4]: susceptible to nifuroxazide, but not nitrofurantoin; Cross-resistance of nifuroxazide-resistant E. coli strains (in words) [4]: cross-resistant |
| O=C(N/N=C/c1ccc([N+](=O)[O-])o1)c1cccs1 [compound 16] | > 56 | > 63 | low to no cytotoxicity |  | Inhibition of K. pneumoniae (in words) [8]: moderate inhibitors of K. pneumoniae |
| O=C(N/N=C/c1ccc([N+](=O)[O-])o1)c1ccc(Cl)s1 [compound 17] | > 56 | > 63 | low to no cytotoxicity | 3 to 5 | Inhibition of K. pneumoniae (in words) [8]: moderate inhibitors of K. pneumoniae; Cross-resistance of nifuroxazide-resistant E. coli strains (in words) [4]: cross-resistant; Cross-resistance of nitrofurantoin-resistant E. coli strains (in words) [4]: still sensitive |
| Cc1ccc(C(=O)Nc2ccc(S(=O)(=O)O)c3cc(S(=O)(=O)O)cc(S(=O)(=O)O)c23)cc1NC(=O)c1cccc(NC(=O)Nc2cccc(C(=O)Nc3cc(C(=O)Nc4ccc(S(=O)(=O)O)c5cc(S(=O)(=O)O)cc(S(=O)(=O)O)c45)ccc3C)c2)c1 [suramin] |  |  |  |  | HSP60/10 inhibition (in words) [9]: potent HSP60/10 inhibitor |

Further lines, with some results ahead:

| IC50 [6] [µM] | IC50 [7] [µM] | Structure (SMILES) | Cytotoxicity to human cells (in words) [1] | Time for E. coli to develop intermediate resistance [3] [days] | further results |
| --- | --- | --- | --- | --- | --- |
| > 56 | > 63 | O=C(N/N=C/c1ccc([N+](=O)[O-])o1)c1ccccc1 [compound 18] |  |  |  |
| > 56 | > 63 | O=C(N/N=C/c1ccc([N+](=O)[O-])o1)c1ccncc1 [compound 19] |  |  |  |
| > 56 | > 63 | COc1ccc(C(=O)N/N=C/c2ccc([N+](=O)[O-])o2)cc1 [compound 20] | low to no cytotoxicity |  | SI (CC50 / EC50) Colon [5]: >53 |
| > 56 | > 63 | CN(C)c1ccc(C(=O)N/N=C/c2ccc([N+](=O)[O-])o2)cc1 [compound 21] |  |  |  |
